ChEMBL document CHEMBL1201862, “PubChem BioAssay data set” (2004)
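Each compound was tested at five concentrations against cells in 96-well plates for 48 hours. GI50 = concentration required for 50% inhibition of growth.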 The source made the active and inactive calls. Cut-off read from the data, not from the text of the source: active = GI50 up to about 1.1 µM and inactive = higher.

Assays:
Test in all cases: NCI-60 cell line screen, 48 h
A498 = tested on: A498
A549 = tested on: A549
BT-549 = tested on: BT-549
CAKI-1 = tested on: CAKI-1
CCRF-CEM = tested on: CCRF-CEM
COLO 205 = tested on: COLO 205
DU-145 = tested on: DU-145
EKVX = tested on: EKVX
HCC 2998 = tested on: HCC 2998
HCT-116 = tested on: HCT-116
HCT-15 = tested on: HCT-15
HL-60 = tested on: HL-60
HOP-62 = tested on: HOP-62
HOP-92 = tested on: HOP-92
HT-29 = tested on: HT-29
Hs-578T = tested on: Hs-578T
IGROV-1 = tested on: IGROV-1
K562 = tested on: K562
LOX IMVI = tested on: LOX IMVI
M14 = tested on: M14
MCF7 = tested on: MCF7
MDA-MB-231 = tested on: MDA-MB-231
MDA-MB-435 = tested on: MDA-MB-435
MDA-N = tested on: MDA-N
Malme-3M = tested on: Malme-3M
NCI-H226 = tested on: NCI-H226
NCI-H23 = tested on: NCI-H23
NCI-H460 = tested on: NCI-H460
NCI/ADR-RES = tested on: NCI/ADR-RES
OVCAR-3 = tested on: OVCAR-3
OVCAR-4 = tested on: OVCAR-4
OVCAR-5 = tested on: OVCAR-5
OVCAR-8 = tested on: OVCAR-8
PC-3 = tested on: PC-3
RXF 393 = tested on: RXF 393
SF-268 = tested on: SF-268
SF-295 = tested on: SF-295
SF-539 = tested on: SF-539
SK-MEL-2 = tested on: SK-MEL-2
SK-MEL-5 = tested on: SK-MEL-5
SK-OV-3 = tested on: SK-OV-3
SN12C = tested on: SN12C
SNB-75 = tested on: SNB-75
SR = tested on: SR
SW-620 = tested on: SW-620
T47D = tested on: T47D
TK-10 = tested on: TK-10
U-251 = tested on: U-251
UACC-257 = tested on: UACC-257
UACC-62 = tested on: UACC-62
UO-31 = tested on: UO-31

SMILES: O=C1CC2(CCC(O)(c3ccco3)C(C(=O)c3ccco3)C2)C(=O)c2ccccc2N1 (stereo unspecified)
- GI50 (A498): > 100 µM (inactive)
- GI50 (A549): > 100 µM (inactive)
- GI50 (BT-549): 92 µM (inactive)
- GI50 (CAKI-1): > 100 µM (inactive)
- GI50 (CCRF-CEM): > 10 µM (inactive)
- GI50 (COLO 205): > 100 µM (inactive)
- GI50 (DU-145): > 100 µM (inactive)
- GI50 (EKVX): > 100 µM (inactive)
- GI50 (HCC 2998): 55.8 µM (inactive)
- GI50 (HCT-116): 88.7 µM (inactive)
- GI50 (HCT-15): 53.8 µM
- GI50 (HL-60): 27.3 µM (inactive)
- GI50 (HOP-62): > 100 µM (inactive)
- GI50 (HOP-92): 56.9 µM (inactive)
- GI50 (HT-29): > 100 µM (inactive)
- GI50 (Hs-578T): 55.1 µM (inactive)
- GI50 (IGROV-1): 99.1 µM (inactive)
- GI50 (K562): 50.1 µM (inactive)
- GI50 (LOX IMVI): 48.6 µM (inactive)
- GI50 (M14): 99.5 µM (inactive)
- GI50 (MCF7): > 100 µM (inactive)
- GI50 (MDA-MB-231): > 100 µM (inactive)
- GI50 (MDA-MB-435): > 100 µM (inactive)
- GI50 (MDA-N): > 100 µM (inactive)
- GI50 (Malme-3M): > 100 µM (inactive)
- GI50 (NCI-H226): > 100 µM (inactive)
- GI50 (NCI-H23): > 100 µM (inactive)
- GI50 (NCI-H460): 29.5 µM (inactive)
- GI50 (NCI/ADR-RES): 64.6 µM (inactive)
- GI50 (OVCAR-3): 84.7 µM (inactive)
- GI50 (OVCAR-4): 17.3 µM (inactive)
- GI50 (OVCAR-5): > 100 µM (inactive)
- GI50 (OVCAR-8): 86.9 µM (inactive)
- GI50 (PC-3): 54 µM (inactive)
- GI50 (RXF 393): > 100 µM (inactive)
- GI50 (SF-268): > 100 µM (inactive)
- GI50 (SF-295): > 100 µM (inactive)
- GI50 (SF-539): > 100 µM (inactive)
- GI50 (SK-MEL-2): > 100 µM (inactive)
- GI50 (SK-MEL-5): 51.4 µM (inactive)
- GI50 (SK-OV-3): > 100 µM (inactive)
- GI50 (SN12C): > 100 µM (inactive)
- GI50 (SNB-75): 32.2 µM (inactive)
- GI50 (SR): > 100 µM (inactive)
- GI50 (SW-620): > 100 µM (inactive)
- GI50 (T47D): 26.1 µM (inactive)
- GI50 (TK-10): > 100 µM (inactive)
- GI50 (U-251): > 100 µM (inactive)
- GI50 (UACC-257): > 100 µM (inactive)
- GI50 (UACC-62): > 100 µM (inactive)
- GI50 (UO-31): 24.7 µM (inactive)
